According to ChEMBL document CHEMBL4725482, “In Silico-Guided Identification of New Potent Inhibitors of Carbonic Anhydrases Expressed in Vibrio cholerae” (ACS Med Chem Lett, 2020):

Key:
[1] = target: Carbonic anhydrase 2 (Homo sapiens, UniProt P00918)
[2] = target: Carbonic anhydrase 1 (Homo sapiens, UniProt P00915)
Sequence of Carbonic anhydrase 1 (P00915 whole entry): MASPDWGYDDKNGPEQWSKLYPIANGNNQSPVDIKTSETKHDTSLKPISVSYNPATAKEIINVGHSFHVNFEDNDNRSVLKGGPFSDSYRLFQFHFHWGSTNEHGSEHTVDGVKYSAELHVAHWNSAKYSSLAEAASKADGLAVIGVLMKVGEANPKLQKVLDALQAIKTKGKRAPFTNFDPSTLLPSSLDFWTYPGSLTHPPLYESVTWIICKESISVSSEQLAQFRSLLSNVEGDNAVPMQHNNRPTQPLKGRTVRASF

Row | Structure (SMILES) | Ki [1] [nM] | Ki [2] [nM]
1 | NS(=O)(=O)c1ccc(CNC(=O)Cc2ccccc2F)cc1 | 26.3 | 269
2 | NS(=O)(=O)c1ccc(CNC(=O)c2ccc(Br)cc2)cc1 | 63 | 95
3 | NS(=O)(=O)c1ccc(CNC(=O)c2ccccc2Cc2ccccc2)cc1 | 54.4 | 98.3
4 | CSCCC(=O)NCc1ccc(S(N)(=O)=O)cc1 | 69.5 | 572
5 | Cc1cccc(C(=O)NCc2ccc(S(N)(=O)=O)cc2)c1 | 3.3 | 60.7
6 | NS(=O)(=O)c1ccc(CNC(=O)c2cccc(Cl)c2)cc1 | 5.1 | 65.9
7 | NS(=O)(=O)c1ccc(CNC(=O)c2ccc(-c3ccccc3)cc2)cc1 | 920 | 2110
8 | NS(=O)(=O)c1ccc(CNC(=O)c2ccsc2)cc1 | 83.8 | 44.2
9 | NS(=O)(=O)c1ccc(CNC(=O)c2cc(Cl)ccc2Cl)cc1 | 31.6 | 77.8
